Emax and IC50 data for 15 compounds are collected here from patent US20260137706A1, “METHODS OF TREATING INFLAMMATORY DISEASES” (INTERLINE THERAPEUTICS, INC., priority 2023, published 2026).

Structures are written as SMILES.

In experiment [1] the target is T1, binding of His-XIAP(BIR2)-avi fusion protein to GST-RIPK2 fusion protein (RIPK2/XIAP) (Homo sapiens, UniProt O43353).
T1 construct: made in house; host or cells: baculovirus infected Sf9 cells
Nature of the experiment: RIPK2-XIAP binding competition PPI assay (TR-FRET). To be noted: RIPK2/XIAP binding competition PPI assay; for Emax: Amax, read-out: PPI Amax bin; for IC50: read-out: PPI IC50 bin. The text has this: The ability of selected compounds of Formula (I) to inhibit the binding of an His-XIAP(BIR2)-avi fusion protein to a GST-RIPK2 fusion protein was quantified employing the TR-FRET-based competition assay as described in the following paragraphs.
Recombinant fusion protein of N-terminal Glutathione-S-Transferase (GST) and a fragment of human RIPK2 (amino acids 1-310 of accession number 043353), expressed in baculovirus infected Sf9 cells, purified via glutathione affinity chromatography, was used as GST-RIPK2 fusion protein. Recombinant fusion protein of N-terminal 6×Histidine (His), a fragment of human XIAP (amino acids 152-231 of accession number P98170), and C-terminal avi tag, expressed in baculovirus infected Sf9 cells, purified via Nickel NTA affinity chromatography, was used as the His-XIAP(BIR2)-avi fusion protein.
For the assay, a working solution of 1 nM GST-RIPK2, 25 nM His-XIAP(BIR2)-avi, 6 nM Anti-His-XL665 […] (Revvity Catalogue No. 61HISXLB), and 0.5 nM Anti-GST-Tb (Revvity Catalogue No. 61GSTTLB) in 25 mM Tris-HCl 7.5, 0.5 mM ethylene glycol-bis(2-aminoethylether)-N,N,N′,N′-tetraacetic acid (EGTA), 10 mM magnesium chloride (MgCl2), 2.5 mM dithiothreitol (DTT), 0.01% (w/v) bovine serum albumin (BSA), 0.005% (w/v) Pluronic F-127 (Sigma), 0.5 mM sodium ortho-vanadate, 5 mM β-Glycerophosphate disodium salt hydrate (BGP) was prepared. 50 nL of a 100-fold concentrated solution of each test compound in DMSO was dispensed via acoustic dispensing into a white low volume 384-well microtiter plate (Perkin Elmer Catalogue No. 6008280). Subsequently, 5 μL of the assay working solution were added.
The resulting mixture was incubated 120 min at 23° C. Subsequently, the amount of complex formed by the GST-RIPK2, XIAP(BIR2)-avi, Anti-His-XL665, and Anti-GST-Tb was evaluated by measurement of the resonance energy transfer from the Tb-cryptate to the XL665. Therefore, the fluorescence emissions at 520 nm and 665 nm after excitation at 337 nm were measured in a TR-FRET reader, e.g. a Pherastar FS (BMG Labtechnologies, Offenburg, Germany) or an Envision (PerkinElmer). The ratio of the emissions at 665 nm and at 520 nm was taken as the measure of the amount of the complex. The data were normalized (assay reaction without inhibitor=0% activity, 50 nM of GSK583=−100% activity).
For the RIPK2/XIAP binding competition PPI assay Amax values, “A” denotes an Amax of ≥80%; “B” denotes an Amax of 80%>B≥55; “C” denotes an Amax of 55%>C>30; and “D” denotes an Amax of ≤30%.
On the technique in general: Time-resolved FRET reads energy transfer from a long-lived donor to a nearby acceptor.

Experiment [2] relates to NF-κB pathway (SEAP) in THP1-Dual cells. In words: THP-1 Dual cell SEAP assay (L18-MDP stimulated). The class given is cell-based. To be noted: Homo sapiens, THP1-Dual, read-out: NF-κB THP1 IC50 bin. Here is the method:
THP1-Dual™ cells (InvivoGen Cat #thpd-nfis) allow simultaneous assessment of the NF-κB pathway, by monitoring the activity of secreted embryonic alkaline phosphatase (SEAP) as well as the IRF pathway, by assessing the activity of a secreted luciferase (Lucia). Cells were cultured according to manufacturers' recommendations. For the assay, cell concentration was adjusted to 7.14×10^5 cells/mL in assay media (RPMI 1640, 2 mM L-Glutamine, 25 mM HEPES, 10% fetal bovine serum (heat-inactivated for 30 min at 56° C.), Pen-Strep (100 U/mL)) and 35 µL of cell suspension (˜25,000 cells) per well were added to a flat bottom 384-well plate (white opaque). Plate was centrifuged at 300 g for 2 min, compounds were added in serial dilution series according to the plate layout (volumes ˜500 nL-0.0152 nL) and plate was incubated at 37° C. in 5% CO2 for 30 min. Using assay media, a L18-MDP stock solution, that results in a final concentration of 10 ng/mL L18-MDP in each well when adding 15 μL to each well, was prepared. 15 μL of L18-MDP stock solution was added to each well, while 15 μL of assay media was added to the negative control wells. Plates were subsequently incubated at 37° C. in 5% CO2 overnight (20-24 h).
For the SEAP assay: without disturbing the cells at the bottom of the well, 15 μL supernatant was transferred to a clear 384-well flat bottom plate and 35 μL QUANTI-Blue Solution per well was added. Following a 2 h incubation at 37° C., the optical density (OD) was measured at 620-655 nm using a microplate reader (PheraStar FS microplate reader with protocol for OD 620-655 nm).
Values of media-only wells were subtracted and % inhibition for each compound concentration relative to the DMSO/L18-MDP-treated controls was calculated. Inhibition values+/−SD were fitted by non-linear regression using Prism software (GraphPad PRISM Software) to calculate IC50 values.

T1 sequence (O43353 1-310 limits assumed): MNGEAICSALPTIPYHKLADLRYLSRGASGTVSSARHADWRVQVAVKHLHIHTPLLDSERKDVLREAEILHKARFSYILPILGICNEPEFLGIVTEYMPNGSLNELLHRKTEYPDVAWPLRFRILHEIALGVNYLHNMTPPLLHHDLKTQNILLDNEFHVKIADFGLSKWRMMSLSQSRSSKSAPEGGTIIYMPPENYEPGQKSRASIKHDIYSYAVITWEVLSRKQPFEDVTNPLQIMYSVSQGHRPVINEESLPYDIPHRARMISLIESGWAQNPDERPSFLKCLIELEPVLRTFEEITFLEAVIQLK

For `COc1c(F)cc(-c2cnc3cc(OC[C@H](C)O)c(S(=O)(=O)C(C)(C)C)cn23)cc1NS(C)(=O)=O` [Example 269, (S)-N-(5-(6-(tert-butylsulfonyl)-7-(2-hydroxypropoxy)imidazo[1,2-a]pyridin-3-yl)-3-fluoro-2-methoxyphenyl) methanesulfonamide], in experiment [1], the Emax lay in the range of 55 to 80% and the IC50 (in general, the midpoint of a concentration-inhibition curve) was under 1 nM. In addition, the IC50 in experiment [2] is under 50 nM.

As for `CCS(=O)(=O)Nc1cc(-c2cnc3cc(OC[C@H](C)O)c(S(=O)(=O)C(C)(C)C)cn23)cc(F)c1OC` [Example 270, (S)-N-(5-(6-(tert-butylsulfonyl)-7-(2-hydroxypropoxy)imidazo[1,2-a]pyridin-3-yl)-3-fluoro-2-methoxyphenyl) ethanesulfonamide], the Emax in experiment [1] lay in the range of 55 to 80%. In addition, the IC50 in experiment [1] was under 1 nM; in experiment [2], under 50 nM.

`COc1cc2ncc(-c3cc(NS(=O)(=O)c4cnn(C)c4)c(OC)c(OC)c3)n2cc1N1CC2(COC2)CC1=O` [Example 271, N-(2,3-dimethoxy-5-(7-methoxy-6-(7-oxo-2-oxa-6-azaspiro[3.4]octan-6-yl)imidazo[1,2-a]pyridin-3-yl)phenyl)-1-methyl-1H-pyrazole-4-sulfonamide]: the Emax in experiment [1] is over 80%. For the same compound, the IC50 in experiment [1] was 2.5 to 20 nM; in experiment [2] it was over 1000 nM.

Turning to `CC(C)(C)S(=O)(=O)c1cn2c(-c3cc(F)c(N)nc3F)cnc2cc1NCCO` [Example 272, 2-((3-(6-amino-2,5-difluoropyridin-3-yl)-6-(tert-butylsulfonyl)imidazo [1,2-a]pyridin-7-yl)amino)ethan-1-ol], in experiment [1], the Emax is over 80% and the IC50 was 1 to 2.5 nM. The IC50 in experiment [2] was in the range of 50 to 250 nM.

Consider `COc1cc2ncc(-c3cc(NS(=O)(=O)c4cnn(C)c4)c(OC)c(OC)c3)n2cc1N1CCCC1=O` [Example 273, N-(2,3-dimethoxy-5-(7-methoxy-6-(2-oxopyrrolidin-1-yl)imidazo[1,2-a]pyridin-3-yl)phenyl)-1-methyl-1H-pyrazole-4-sulfonamide], for which, in experiment [1], the Emax was over 80% and the IC50 lay within 1 to 2.5 nM. Besides, the IC50 in experiment [2] was 250 to 1000 nM.

In the case of `COc1ccc(-c2cnc3cc(OC)c(S(=O)(=O)C(C)(C)C)cn23)cc1NS(=O)(=O)c1cnn(C)c1` [Example 282, N-(5-(6-(tert-butylsulfonyl)-7-methoxyimidazo[1,2-a]pyridin-3-yl)-2-methoxyphenyl)-1-methyl-1H-pyrazole-4-sulfonamide], in experiment [1], the Emax is over 80% and the IC50 was under 1 nM. Further, the IC50 in experiment [2] is under 50 nM.

Consider `COc1cc2ncc(-c3cc(Cl)c(OC)c(NS(=O)(=O)c4cnn(C)c4)c3)n2cc1S(=O)(=O)C(C)(C)C` [Example 283, N-(5-(6-(tert-butylsulfonyl)-7-methoxyimidazo[1,2-a]pyridin-3-yl)-3-chloro-2-methoxyphenyl)-1-methyl-1H-pyrazole-4-sulfonamide], for which the Emax in experiment [1] was over 80%. For the same compound, the results for the IC50 in experiment [1] and in experiment [2] were under 1 nM and under 50 nM, respectively.

`COc1cc2ncc(-c3cc(F)cc(NS(=O)(=O)c4cnn(C)c4)c3)n2cc1S(=O)(=O)C(C)(C)C` [Example 284, N-(3-(6-(tert-butylsulfonyl)-7-methoxyimidazo[1,2-a]pyridin-3-yl)-5-fluorophenyl)-1-methyl-1H-pyrazole-4-sulfonamide]: in experiment [1], the Emax was over 80% and the IC50 was under 1 nM. Further, the IC50 in experiment [2] is 50 to 250 nM.

Regarding `COc1cc(NS(=O)(=O)c2cnn(C)c2)cc(-c2cnc3cc(OC)c(S(=O)(=O)C(C)(C)C)cn23)c1` [Example 285, N-(3-(6-(tert-butylsulfonyl)-7-methoxyimidazo[1,2-a]pyridin-3-yl)-5-methoxyphenyl)-1-methyl-1H-pyrazole-4-sulfonamide], in experiment [1], the Emax was over 80% and the IC50 was under 1 nM. The IC50 in experiment [2] is under 50 nM.

Consider `COc1cc2ncc(-c3cc(C)c(OC)c(NS(=O)(=O)c4cnn(C)c4)c3)n2cc1S(=O)(=O)C(C)(C)C` [Example 286, N-(5-(6-(tert-butylsulfonyl)-7-methoxyimidazo[1,2-a]pyridin-3-yl)-2-methoxy-3-methylphenyl)-1-methyl-1H-pyrazole-4-sulfonamide], for which, in experiment [1], the Emax was over 80% and the IC50 is under 1 nM. The IC50 in experiment [2] was in the range of 50 to 250 nM.

For `COc1cc2ncc(-c3cc(F)c(OC)c(NS(=O)(=O)c4cnc(C)s4)c3)n2cc1S(=O)(=O)C(C)(C)C` [Example 287, N-(5-(6-(tert-butylsulfonyl)-7-methoxyimidazo[1,2-a]pyridin-3-yl)-3-fluoro-2-methoxyphenyl)-2-methylthiazole-5-sulfonamide], in experiment [1], the Emax lay within 55 to 80% and the IC50 was under 1 nM. The IC50 in experiment [2] was in the range of 50 to 250 nM.

Turning to `COc1cc2ncc(-c3cc(F)c(OC)c(NS(=O)(=O)c4cc(C)no4)c3)n2cc1S(=O)(=O)C(C)(C)C` [Example 288, N-(5-(6-(tert-butylsulfonyl)-7-methoxyimidazo[1,2-a]pyridin-3-yl)-3-fluoro-2-methoxyphenyl)-3-methylisoxazole-5-sulfonamide], in experiment [1], the Emax was under 30% and the concentration for half-maximal inhibition (IC50) is over 20 nM. In addition, the IC50 in experiment [2] is over 1000 nM.

Regarding `COc1cc2ncc(-c3cc(F)c(OC)c(NS(=O)(=O)c4cc(C)ns4)c3)n2cc1S(=O)(=O)C(C)(C)C` [Example 289, N-(5-(6-(tert-butylsulfonyl)-7-methoxyimidazo[1,2-a]pyridin-3-yl)-3-fluoro-2-methoxyphenyl)-3-methylisothiazole-5-sulfonamide], in experiment [1], the Emax lay in the range of 30 to 55% and the IC50 was under 1 nM. In experiment [2], the IC50 lay in the range of 50 to 250 nM.

Regarding `COc1cc2ncc(-c3cc(F)c(OC)c(NS(=O)(=O)c4cnc(C)o4)c3)n2cc1S(=O)(=O)C(C)(C)C` [Example 290, N-(5-(6-(tert-butylsulfonyl)-7-methoxyimidazo[1,2-a]pyridin-3-yl)-3-fluoro-2-methoxyphenyl)-2-methyloxazole-5-sulfonamide], in experiment [1], the Emax was under 30% and the IC50 is over 20 nM. Further, in experiment [2], the IC50 was over 1000 nM.

On to `COc1cc2ncc(-c3cc(F)c(OC)c(NS(=O)(=O)c4csc(C)n4)c3)n2cc1S(=O)(=O)C(C)(C)C` [Example 291, N-(5-(6-(tert-butylsulfonyl)-7-methoxyimidazo[1,2-a]pyridin-3-yl)-3-fluoro-2-methoxyphenyl)-2-methylthiazole-4-sulfonamide], for which the Emax in experiment [1] is 55 to 80%. Moreover, the IC50 in experiment [1] is under 1 nM; in experiment [2], under 50 nM.
